Measured values from PMC12304869 (Obesity (Silver Spring, Md.), 2025).

Assays:
[1] = cited from earlier work
[2] = cited from earlier work; remark: listed apart in the source
[3] = format: in vivo, male Sprague Dawley rats; settings: DIO rats
[4] = Phase 2 part 2: pharmacodynamics; format: in vivo, human; settings: part 2b
[5] = DIO rats: body weight during daily s.c. semaglutide; format: in vivo, male Sprague Dawley rats; settings: n = 9

PYY3‐36: active, Y2‐selective cleaved form of the hormone peptide YY
weight loss after 12 weeks of treatment ([1]; intranasal, 200‐μg dose, participants with obesity, placebo −2.8 kg): -3.7 kg | treatment discontinuation due to nausea and vomiting ([1]; phase 1, intranasal 600 μg): a majority of participants receiving 600 μg discontinued treatment | half‐life (t1/2) [2]: roughly 10 min

semaglutide
weight loss ([1]; semaglutide 2.4 mg alone, over 68 weeks): 14.9% | cumulative food intake from day 1 to 26, mean (SD) ([3]; vehicle + 30 nmol/kg semaglutide): 389 (53) g | mean body weight change after 26 days, mean (SD) ([3]; vehicle + 30 nmol/kg semaglutide daily s.c., n = 9): −12.5% (3.4%) | change in body weight from baseline (week 32) to EOT (week 48) ([4]; placebo + semaglutide 2.4 mg weekly, ANCOVA estimate, FAS): −3.1% | change in body weight from baseline to EOT ([4]; placebo + semaglutide 2.4 mg): -2.2 kg | body weight loss after 26 days of treatment, mean (SD) ([5]; semaglutide 3 nmol/kg daily s.c.): −8.8% (2.9%) | body weight loss after 26 days of treatment, mean (SD) ([5]; semaglutide 30 nmol/kg daily s.c.): −14.2% (3.0%) | body weight loss after 26 days of treatment, mean (SD) ([5]; semaglutide 100 nmol/kg daily s.c.): −17.4% (5.7%)
